Reference: DBAASP
Converted amounts (≈) assume the structure as drawn. Each block holds one molecule with its values, some of them ahead of it.

Key:
Assay in all cases: ≥ marks a high value that may be exact or a test limit, other limits are often not marked, values filed in µg/mL are converted to µM
[1] = test system: Staphylococcus aureus ATCC 12600
[2] = test system: Escherichia coli ATCC 11775
[3] = test system: Klebsiella pneumoniae ATCC 700603
[4] = test system: Staphylococcus aureus ATCC 33591
[5] = test system: Pseudomonas aeruginosa ATCC 27853
[6] = test system: Staphylococcus aureus ATCC 700699
[7] = test system: Escherichia coli ATCC 25922
[8] = test system: Staphylococcus aureus ATCC 29213
[9] = test system: Staphylococcus aureus ATCC BAA-1556
Escherichia coli BW25113 = test system: Escherichia coli BW25113
[10] = test system: Staphylococcus epidermidis ATCC 12228
[11] = test system: Salmonella enterica subsp. enterica serovar Typhimurium C77-31
[12] = test system: Enterococcus faecalis ATCC 29212
[13] = test system: Salmonella enterica subsp. enterica serovar Pullorum C79-13

Structure (SMILES): CC(C)C[C@H](NC(=O)[C@H](C)NC(=O)[C@H](CC(C)C)NC(=O)[C@@H]1CCCN1C(=O)[C@H](Cc1ccccc1)NC(=O)[C@@H](N)Cc1ccccc1)C(=O)N[C@@H](CC(C)C)C(=O)N[C@H]1CSSC[C@@H](C(=O)O)NC(=O)[C@H](CCCCN)NC(=O)[C@H](CCCCN)NC(=O)[C@H](Cc2ccccc2)NC(=O)[C@H](C(C)C)NC(=O)[C@H](CCCCN)NC1=O [FFPLALLCKVFKKC]
MIC [1]: ≥ 100 µM
MIC [2]: 25 µM (≈ 41.4 µg/mL)

Structure (SMILES): CC[C@H](C)[C@H](NC(=O)[C@H](CC(=O)O)NC(=O)[C@H](CCCCN)NC(=O)[C@H](C)NC(=O)[C@H](C)NC(=O)CNC(=O)[C@H](CCCCN)NC(=O)[C@H](CC(C)C)NC(=O)[C@@H](NC(=O)[C@H](CC(=O)O)NC(=O)[C@@H](NC(=O)[C@H](C)NC(=O)CN)C(C)C)[C@@H](C)CC)C(=O)N[C@@H](C)C(=O)NCC(=O)N[C@@H](Cc1cnc[nH]1)C(=O)N[C@@H](CC(C)C)C(=O)N[C@@H](C)C(=O)N[C@@H](CO)C(=O)N[C@@H](CCCCN)C(=O)N[C@H](C(=O)N[C@@H](CCSC)C(=O)N[C@@H](CC(N)=O)C(=O)N[C@@H](CCCCN)C(=O)N[C@@H](CC(C)C)C(N)=O)C(C)C [GAVDILKGAAKDIAGHLASKVMNKL]
MIC [3]: > 100 µM
MIC [4]: ≥ 100 µM
MIC [5]: > 100 µM
MIC [6]: ≥ 100 µM
MIC [7]: > 100 µM
MIC [8]: > 100 µM

Structure (SMILES): CC[C@H](C)[C@H](NC(=O)[C@H](CC(=O)O)NC(=O)[C@H](CCCCN)NC(=O)[C@H](CC(C)C)NC(=O)[C@H](C)NC(=O)CNC(=O)[C@H](CCCCN)NC(=O)[C@H](CC(C)C)NC(=O)[C@@H](NC(=O)[C@H](CC(=O)O)NC(=O)[C@@H](NC(=O)[C@@H](NC(=O)CN)C(C)C)C(C)C)[C@@H](C)CC)C(=O)N[C@@H](C)C(=O)NCC(=O)N[C@@H](Cc1cnc[nH]1)C(=O)N[C@@H](CC(C)C)C(=O)N[C@@H](C)C(=O)N[C@@H](CO)C(=O)N[C@@H](CCCCN)C(=O)N[C@H](C(=O)N[C@@H](CCSC)C(=O)N[C@@H](CC(N)=O)C(=O)N[C@@H](CCCCN)C(=O)N[C@@H](CC(C)C)C(N)=O)C(C)C [GVVDILKGALKDIAGHLASKVMNKL]
MIC [3]: 50 µM (≈ 130 µg/mL)
MIC [4]: 25 µM (≈ 64.8 µg/mL)
MIC [5]: 50 µM (≈ 130 µg/mL)
MIC [6]: ≥ 50 µM
MIC [7]: 12.5 µM (≈ 32.4 µg/mL)
MIC [8]: 100 µM (≈ 259 µg/mL)

Structure (SMILES): CC(C)C[C@H](NC(=O)[C@H](CC(C)C)NC(=O)[C@H](CC(C)C)NC(=O)[C@H](CC(C)C)NC(=O)[C@H](CC(C)C)NC(=O)[C@H](CC(C)C)NC(=O)[C@H](CCCCN)NC(=O)[C@H](CC(C)C)NC(=O)[C@@H](N)CC(C)C)C(N)=O [LLKLLLLLL]
MIC [9]: ≥ 100 µM

Structure (SMILES): CC[C@H](C)[C@H](NC(=O)[C@@H]1CCCN1C(=O)[C@H](CCCN=C(N)N)NC(=O)[C@H](CCCN=C(N)N)NC(=O)[C@H](Cc1ccccc1)NC(=O)[C@@H](N)CCCN=C(N)N)C(=O)N[C@@H](CCCN=C(N)N)C(=O)N[C@@H](CCCN=C(N)N)C(=O)N[C@@H](CCCN=C(N)N)C(=O)N1CCC[C@H]1C(=O)N[C@H](C(=O)N[C@@H](CCCN=C(N)N)C(=O)N1CCC[C@H]1C(=O)N1CCC[C@H]1C(=O)N[C@@H](Cc1ccccc1)C(=O)N[C@@H](Cc1c[nH]c2ccccc12)C(=O)N[C@@H](CCCN=C(N)N)C(=O)O)[C@@H](C)CC [RFRRPIRRRPIRPPFWR]
MIC (Escherichia coli BW25113): 8 µM (≈ 18.9 µg/mL)

Structure (SMILES): CC[C@H](C)[C@H](NC(=O)[C@@H]1CCCN1C(=O)[C@H](CCCN=C(N)N)NC(=O)[C@H](CCCN=C(N)N)NC(=O)[C@H](Cc1c[nH]c2ccccc12)NC(=O)[C@@H](N)CCCN=C(N)N)C(=O)N[C@@H](CCCN=C(N)N)C(=O)N[C@@H](CCCN=C(N)N)C(=O)N[C@@H](CCCN=C(N)N)C(=O)N1CCC[C@H]1C(=O)N[C@H](C(=O)N[C@@H](CCCN=C(N)N)C(=O)N1CCC[C@H]1C(=O)N1CCC[C@H]1C(=O)N[C@@H](Cc1ccccc1)C(=O)N[C@@H](Cc1ccc(O)cc1)C(=O)N1CCC[C@H]1C(=O)O)[C@@H](C)CC [RWRRPIRRRPIRPPFYP]
MIC (Escherichia coli BW25113): 8 µM (≈ 18.6 µg/mL)

Structure (SMILES): CC[C@H](C)[C@H](NC(=O)[C@@H]1CCCN1C(=O)[C@H](Cc1c[nH]c2ccccc12)NC(=O)[C@H](CCCN=C(N)N)NC(=O)[C@H](Cc1c[nH]c2ccccc12)NC(=O)[C@@H](N)CCCN=C(N)N)C(=O)N[C@@H](CCCN=C(N)N)C(=O)N[C@@H](CCCN=C(N)N)C(=O)N[C@@H](CCCN=C(N)N)C(=O)N1CCC[C@H]1C(=O)N[C@H](C(=O)N[C@@H](CCCN=C(N)N)C(=O)N1CCC[C@H]1C(=O)N1CCC[C@H]1C(=O)N[C@@H](Cc1c[nH]c2ccccc12)C(=O)N[C@@H](Cc1ccc(O)cc1)C(=O)N[C@@H](CCCN=C(N)N)C(=O)O)[C@@H](C)CC [RWRWPIRRRPIRPPWYR]
MIC (Escherichia coli BW25113): 4 µM (≈ 9.79 µg/mL)

Structure (SMILES): CC[C@H](C)[C@H](NC(=O)[C@H](Cc1ccccc1)NC(=O)[C@H](CS)NC(=O)[C@@H](NC(=O)[C@H](CO)NC(=O)[C@@H](N)Cc1ccc(O)cc1)[C@@H](C)O)C(=O)N[C@@H](CCSC)C(=O)NCC(=O)NCC(=O)NCC(=O)N[C@@H](Cc1c[nH]c2ccccc12)C(=O)N[C@@H](CCCCN)C(=O)N[C@@H](Cc1c[nH]c2ccccc12)C(=O)N[C@@H](CCCCN)C(=O)N[C@@H](Cc1c[nH]c2ccccc12)C(=O)N[C@@H](CCC(=O)O)C(=O)N[C@@H](CC(N)=O)C(=O)NCC(=O)N[C@@H](CCCCN)C(=O)N[C@@H](Cc1c[nH]c2ccccc12)C(=O)N[C@@H](CCCCN)C(=O)N[C@@H](Cc1c[nH]c2ccccc12)C(=O)N[C@@H](CCCCN)C(=O)N[C@@H](Cc1c[nH]c2ccccc12)C(=O)O [YSTCFIMGGGWKWKWENGKWKWKW]
MIC [10]: > 128 µM
MIC [11]: ≥ 128 µM
MIC [12]: > 128 µM
MIC [7]: 32 µM (≈ 99 µg/mL)
MIC [13]: ≥ 128 µM
MIC [8]: > 128 µM

Second part, the molecule after the results:

MIC [9]: 25 µM (≈ 33.1 µg/mL)
Structure (SMILES): CC[C@H](C)[C@H](NC(=O)[C@H](Cc1c[nH]c2ccccc12)NC(=O)[C@H](CCCN=C(N)N)NC(=O)[C@H](CCCN=C(N)N)NC(=O)[C@H](CC(C)C)NC(=O)[C@@H](N)CCCCN)C(=O)N[C@@H](CCCN=C(N)N)C(=O)N[C@@H](Cc1c[nH]c2ccccc12)C(=O)N[C@@H](CC(C)C)C(N)=O [KLRRWIRWL]

MIC [9]: ≥ 100 µM
Structure (SMILES): CC[C@H](C)[C@H](NC(=O)[C@H](Cc1c[nH]c2ccccc12)NC(=O)[C@H](CCCN=C(N)N)NC(=O)[C@H](CCCN=C(N)N)NC(=O)[C@H](Cc1c[nH]c2ccccc12)NC(=O)[C@@H](N)CCCCN)C(=O)N[C@@H](CCCN=C(N)N)C(N)=O [KWRRWIR]

MIC [9]: ≥ 100 µM
Structure (SMILES): CC(C)C[C@H](NC(=O)[C@H](CC(C)C)NC(=O)[C@H](CC(C)C)NC(=O)[C@H](CC(C)C)NC(=O)[C@H](CC(C)C)NC(=O)[C@H](CCCCN)NC(=O)[C@H](CC(C)C)NC(=O)[C@@H](N)CC(C)C)C(=O)N[C@@H](CCCCN)C(N)=O [LLKLLLLLK]

MIC [7]: > 77.8 µM
MIC [1]: ≥ 77.8 µM
Structure (SMILES): NCCCC[C@H](NC(=O)[C@H](Cc1c[nH]c2ccccc12)NC(=O)[C@H](Cc1c[nH]c2ccccc12)NC(=O)[C@H](CCCCN)NC(=O)[C@@H](N)CCCN=C(N)N)C(N)=O [RKWWK]

MIC [10]: 32 µM (≈ 66.4 µg/mL)
MIC [11]: ≥ 32 µM
MIC [12]: 64 µM (≈ 133 µg/mL)
MIC [7]: 2 µM (≈ 4.15 µg/mL)
MIC [13]: 8 µM (≈ 16.6 µg/mL)
MIC [8]: 32 µM (≈ 66.4 µg/mL)
Structure (SMILES): NCCCC[C@H](NC(=O)CNC(=O)[C@H](CC(N)=O)NC(=O)[C@H](CCC(=O)O)NC(=O)[C@H](Cc1c[nH]c2ccccc12)NC(=O)[C@H](CCCCN)NC(=O)[C@H](Cc1c[nH]c2ccccc12)NC(=O)[C@H](CCCCN)NC(=O)[C@@H](N)Cc1c[nH]c2ccccc12)C(=O)N[C@@H](Cc1c[nH]c2ccccc12)C(=O)N[C@@H](CCCCN)C(=O)N[C@@H](Cc1c[nH]c2ccccc12)C(=O)N[C@@H](CCCCN)C(=O)N[C@@H](Cc1c[nH]c2ccccc12)C(=O)O [WKWKWENGKWKWKW]

MIC [9]: 12.5 µM (≈ 14.3 µg/mL)
Structure (SMILES): CC(C)C[C@H](NC(=O)[C@H](Cc1c[nH]c2ccccc12)NC(=O)[C@H](Cc1c[nH]c2ccccc12)NC(=O)[C@H](CC(C)C)NC(=O)[C@H](Cc1c[nH]c2ccccc12)NC(=O)[C@@H](N)Cc1c[nH]c2ccccc12)C(=O)N[C@@H](CCCN=C(N)N)C(N)=O [WWLWWLR]
